Patent EP2435019B1, “DODECA-2E,4E-DIENE AMIDES AND THEIR USE AS MEDICAMENTS AND COSMETICS” (Dr. August Wolff GmbH & Co. KG Arzneimittel, priority 2009, dated 2010)

Columns and labels:
Anandamide transport = Anandamide transport (human) cellular functional assay (assay F); type: cell-based; settings: human U-937 cells, 0.1 µM [3H]-Anandamide, 20 min (assay F)
Procedure: Anandamide transport is determined using human U-937 cells as receptor source. [3H]-Anandamide (0.1 Ci/mmol), final concentration 0.1 µM is used as substrate. AM-404 is used as reference compound. Reactions are carried out in KRH buffer (pH 7.4) at 37°C for 20 min. The reaction is terminated by rapid vacuum filtration onto glass fiber filters. Radioactivity trapped onto filters is determined and compared to control values in order to ascertain any interactions of test compound with anandamide uptake (Hiiliard C.J. The movement of N-arachidonylethanolamide (anandamide) across cellular membranes. Chem. Physics Lipids. 2008;108:123-134, with modifications).

[1] = system: Arachidonoylethanolamide Transport (AEAT); assay: Cellular uptake of [3H]-AEA in U937 cells (assay C); type: cell-based, Human; settings: Homo sapiens, U-937, read-out: EC50 value, AEA re-uptake inhibition
Procedure: 5x10^5 cells were collected and suspended in 500 µL of sterile PBS (Sigma, San Louis, MO, US) using glass silanized tubes. Cells were pre-incubated 10 min at 37°C in presence of test compounds in a concentration range of 10^-8 - 10^-4 M or in presence of the same amount of solvent (control). Then a mixture of 50 nM [^3H]-AEA (60 Ci/mmol) (American Radiolabeled Chemicals, Inc., San Louis, MO, US) and 50 nM of nonradioactive AEA (Tocris Cookson Ltd., Bristol, UK) was added and samples were incubated at 37°C for different times in the range of 1-60 min. The reaction was stopped by rapid filtration over Whatman GF/C filters pre-soaked in 0,25 % BSA. […] The filters-bound radioactivity was measured using a Beckman LS6500 scintillation counter. Results were expressed as % of AEA uptake versus cells treated with solvent and the EC50 and IC50 values were calculated from the sigmoidal curves, which were generated using the GraphPad Prism (GraphPad Software, San Diego, CA, US).

FAAH = target: T1, FAAH (Sus scrofa, UniProt Q9TUI8); assay: Fatty acid amide hydrolase (FAAH) inhibition, pig brain homogenate (assay D); type: biochemical; settings: 1 µM; pig brain homogenate (assay D)
T1 construct: 165 µl of diluted pig brain homogenate; from tissue; host or cells: pig brain homogenate
T1 sequence (Q9TUI8 1-579): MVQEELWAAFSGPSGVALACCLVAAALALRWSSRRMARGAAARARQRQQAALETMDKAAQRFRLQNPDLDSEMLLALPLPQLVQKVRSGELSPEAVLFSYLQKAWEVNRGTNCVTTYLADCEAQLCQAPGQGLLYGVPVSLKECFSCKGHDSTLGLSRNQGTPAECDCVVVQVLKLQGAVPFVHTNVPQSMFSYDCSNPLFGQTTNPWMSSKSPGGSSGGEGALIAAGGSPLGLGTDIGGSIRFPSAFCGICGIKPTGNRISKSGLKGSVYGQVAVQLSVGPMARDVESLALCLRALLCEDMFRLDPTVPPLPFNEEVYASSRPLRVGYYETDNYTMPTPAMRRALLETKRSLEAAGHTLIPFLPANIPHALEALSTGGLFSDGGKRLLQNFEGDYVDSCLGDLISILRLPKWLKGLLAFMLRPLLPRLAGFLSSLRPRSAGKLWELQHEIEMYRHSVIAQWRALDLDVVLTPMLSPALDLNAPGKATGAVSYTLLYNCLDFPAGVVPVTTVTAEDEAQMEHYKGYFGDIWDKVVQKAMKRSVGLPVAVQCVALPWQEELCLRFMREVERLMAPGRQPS

Row | Structure (SMILES) | AEAT inhibition at 1 µM (Anandamide transport) | EC50 [1] [nM] | FAAH inhibition at 1 µM (FAAH)
1 | CCCCCCC/C=C/C=C/C(=O)NCCO [Example 1, (2E,4E)-N-(2-hydroxyethyl)dodeca-2,4-diene amide] | 28 % of control | 1230 ± 305 | <10 % of control
2 | CCCCCCC/C=C/C=C/C(=O)NCCc1cccc(OC)c1 [Example 9, (2E,4E)-N-(3-methoxyphenethyl)dodeca-2,4-diene amide] | 34 % of control | 869 ± 172 | 14.63 ± 2.91 % of control
